How the values were obtained:
B16 melanoma cells [1] = experiment: Melanin content of treated B16 melanoma cells; assay type: cell-based, mouse; settings: for melanin content lower than controls / melanin content: 20 μM; for melanin content: days 5 and 9
Method: (§1) At different time points, cells were harvested using trysin-EDTA and the cell pellets were washed once with phosphate-buffered saline (PBS). A sample amount from each compound treatment group was divided into two equal parts. These cell pellets were then stored at −80° C. prior to the measurement of the tyrosinase activity and melanin content.
Harvested cell pellets were dissolved in 1 ml of 1N sodium hydroxide before incubation at 80° C. The melanin content was then immediately measured at 420 nm. The absorbance percentage values of the treated groups in comparison to untreated controls were calculated against per μg of the determined total protein content.

tyrosinase [2] = experiment: UV-induced tyrosinase protein expression, Western blot; assay type: cell-based, mouse
Method: (§2) The UVB source for cell irradiation was provided using a UVP UVM-57 handheld UV lamp (UVP Inc, Upland, Calif., USA).
Briefly, cell lysates were prepared by suspending cell pellets in lysis buffer (50 mmol/l Tris-HCl [pH 8.0], 150 mmol/l NaCl, 1% NP40, 0.5% deoxycholate, 0.1% SDS, 1 mg/ml aprotinin, 1 μg/ml leupeptin, and 1 mmol/l phenylmethylsulfonyl fluoride). The protein concentration was measured using the DC Protein Assay kit (Bio-Rad, Hercules, Calif., USA). An equal amount of protein (30 μg) was loaded onto a 10% SDS polyacrylamide gel for electrophoresis, then transferred onto a polyvinylidene difluoride membrane (Amersham, Piscataway, N.J., USA). The membrane was then incubated with primary antibodies for 1 hr at room temperature against tyrosinase, Id1, and beta-actin (Santa Cruz Biotechnology, Inc., Santa Cruz, Calif., USA). After incubation with appropriate secondary antibodies, signals were visualized by an ECL Western blotting system (Amersham). The expression of β-actin was assessed as an internal loading control for total cell lysate.

tyrosinase mRNA = experiment: Reverse transcriptase PCR of tyrosinase mRNA; assay type: cell-based, mouse; settings: B16 melanoma cells
Excerpt: Total RNA was isolated using Trizol reagent according to the manufacturer's protocol (Invitrogen, Carlsbad, Calif., USA). cDNA was synthesized using the SuperScript First Strand Synthesis System (Invitrogen, Carlsbad, Calif., USA) and was then amplified by PCR with tyrosinase-specific primers (forward primer, tyrosinase-S,5′-[…]-3′ [−2236/−2217] (SEQ ID NO: 1) and reverse primer, tyrosinase-AS,5′-[…]-3′ [+63/+42]) (SEQ ID NO: 2) and GAPDH specific primers: 5′ to 3′F […] (SEQ ID NO: 3); 5′ to 3′R […] (SEQ ID NO: 4). The PCR cycling protocol was as follows: 30 cycles for 10 min at 95° C., 30 sec at 95° C., 30 sec at 55° C., 1 min at 72° C., and 10 min at 72° C. Glyceraldehyde 3-phosphate dehydrogenase (GAPDH) was amplified as an internal control. The PCR products were electrophoresed on a 2% agarose gel and analyzed using a gel documentation system.

B16 cells = experiment: Melanin content of pre-treated B16 cells after UV exposure; assay type: cell-based, mouse; settings: 10 minutes UV exposure (short and long wave UV)
Excerpt: as §2

tyrosinase [3] = biological target: T1, tyrosinase (Mus musculus, UniProt P11344); experiment: Tyrosinase activity of treated B16 melanoma cells (L-DOPA, dopachrome formation); assay type: cell-based; settings: 20 μM; for tyrosinase activity: day 9
T1 construct: suppression of tyrosinase protein expression in B16 melanoma cells; endogenous in cells; host or cells: B16 melanoma cells
T1 sequence (P11344 19-533): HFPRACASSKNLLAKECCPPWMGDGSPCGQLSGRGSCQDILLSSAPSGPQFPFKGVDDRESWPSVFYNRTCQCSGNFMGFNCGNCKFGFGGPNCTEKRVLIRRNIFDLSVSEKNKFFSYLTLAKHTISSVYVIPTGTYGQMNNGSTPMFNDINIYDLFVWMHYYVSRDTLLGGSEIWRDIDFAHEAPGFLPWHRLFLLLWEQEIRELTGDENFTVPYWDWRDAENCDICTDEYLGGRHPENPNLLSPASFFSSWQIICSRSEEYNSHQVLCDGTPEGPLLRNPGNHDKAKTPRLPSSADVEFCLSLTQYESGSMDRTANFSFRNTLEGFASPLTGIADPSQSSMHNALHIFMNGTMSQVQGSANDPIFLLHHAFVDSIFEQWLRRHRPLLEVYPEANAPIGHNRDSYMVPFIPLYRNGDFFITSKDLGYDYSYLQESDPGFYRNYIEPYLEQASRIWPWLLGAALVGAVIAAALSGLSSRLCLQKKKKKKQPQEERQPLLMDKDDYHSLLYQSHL
Method: as §1
Harvested cell pellets were homogenized in RIPA buffer (10 mM Tris-HCl [pH 7.5], 1% NP-40, 0.1% sodium deoxycholate, 0.1% SDS, 150 mM sodium chloride, and 1 mM EDTA) with protease inhibitors and placed on ice for 30 min. The supernatants were collected after centrifuging the samples at 15,000 g at 4° C. for 30 min. For every 100 μl of supernatant, 200 μl of 0.3% L-DOPA (Sigma-Aldrich) was added. All samples, including a blank control of RIPA buffer and 0.3% L-DOPA, were incubated at 37° C. for 20 min. The dopachrome formation from each sample was then measured at 475 nm. The absorbance percentage values of the treated groups in comparison to untreated controls were calculated against per μg of the total protein content, which was determined using the DC protein assay (Bio-Rad, Hercules, Calif., USA).

B16 melanoma cells [4] = experiment: Anti-pigmentation effect, photographs of cell pellets; assay type: cell-based, mouse; settings: 20 μM
Method: as §1

[5] = system: B16 cells xenografted on the flank of nude mice; experiment: B16 xenograft model in nude mice; assay type: in vivo; settings: cells pre-treated with 20 μM for 1 week, 14 days oral supplementation
Method: The experimental protocol was approved by the IACUC Committee of the A-STAR Biological Resource Centre (BRC) at Biopolis (IACUC no. 080302). Male BALB/c athymic nude mice (4-5 weeks old, 18-22 g) were purchased from The Jackson Laboratory (Bar Harbor, Me., USA). Mice were housed in Department 1 of the Biological Resource Centre (Biopolis, Singapore) under the standard condition (20.8±2° C., 55±1% relative humidity, 12 hrs light/dark cycle) with rodent diet (Harlan Laboratories, Inc., Indianapolis, Ind., USA) and chlorinated reverse osmosis water supplied in a pathogen-free environment. Briefly, B16 cells were pre-treated with 20 μM of γ- and δ-T3, or palm TRF for 1 week. Then, 5×10^5 pre-treated B16 cells in 100 μl serum-free DMEM were injected subcutaneously into the flank of nude mice using a 1-ml syringe with a 26-gauge needle (Becton Dickinson, Franklin Lakes, N.J., USA). This was followed by a 2-week oral supplementation of γ- and δ-T3, or palm TRF at the dose of 100 mg/kg/day. Altogether, there are four experimental groups: G1, vehicle control; G2, γT3 (100 mg/kg/d); G3, δT3 (100 mg/kg/d); and G4, full spectrum palm TRF (100 mg/kg/d). The mice were weighed daily and the tumors were measured using a Digital Carbon Fiber Caliper (Fisher Scientific, Pittsburgh, Pa., USA) at the 5th and 14th day after innoculation. After 14 days of treatment, the mice were euthanized by CO2 inhalation. Blood samples were collected through cardiac bleeding using a 26-gauge needle. Blood samples were incubated at room temperature for 30 min, followed by centrifugation at 4400 rpm for 30 min at 4° C. Serum, as the supernatant, was separated from plasma and stored at −80° C. Tumors, liver, kidney, spleen, lung, heart, and skin were harvested.

SMILES: CC(C)=CCC/C(C)=C/CC/C(C)=C/CCC1(C)CCc2cc(O)c(C)c(C)c2O1 (centres unmarked) [γ-tocotrienol, 7,8-dimethyltocotrienol]
- melanin content lower than controls (B16 melanoma cells [1]; day 5): 45%
- melanin content lower than controls (B16 melanoma cells [1]; day 9): 30%
- melanin content (B16 melanoma cells [1]; listed as gamma T3): significantly suppressed the melanin content up to day 9
- melanin content (B16 melanoma cells [1]; listed as γT3): marginally lower than the treatment samples using 0.05% sodium lactate and kojic acid
- constitutive melanin synthesis (B16 melanoma cells [1]; B16 melanoma cells): suppress constitutive melanin synthesis
- tyrosinase protein expression of B16 cells exposed to UV (tyrosinase [2]; UV 1, 10, 30 and 60 minutes): significantly suppressed the tyrosinase protein expression
- long-term inhibitory effect on UVB-induced tyrosinase activation (tyrosinase [2]; long-term UVB): comparable
- tyrosinase mRNA (tyrosinase mRNA): No change of tyrosinase mRNA
- tyrosinase mRNA (tyrosinase mRNA; listed as γ-T3): not affected
- melanin content after UV exposure (B16 cells): significantly suppressed the melanin content
- tyrosinase activity (tyrosinase [3]; listed as gamma T3): significantly suppressed the activity of tyrosinase on day 9
- tyrosinase activity (tyrosinase [3]; listed as γT3): comparable to that treated with 0.05% kojic acid
- tyrosinase activity compared to controls (tyrosinase [3]; day 15): < 15%
- cell pellet pigmentation (B16 melanoma cells [4]; listed as gamma T3): lighter cell pigmentation
- cell pellet pigmentation (B16 melanoma cells [4]; listed as γT3): lighter cell pigmentation
- pigmentation of solid tumors [5]: lighter in colour compared to controls
- tumor size [5]: significantly smaller
